Holding throughout (format): cell-based
The target of experiment [1] is T1, Cx26 (Homo sapiens, UniProt P29033). As to the kind of experiment: dye uptake rate in Xenopus oocytes. The settings on record: transport (dye permeation); resting membrane potential.
The target in experiment [2] is Cx26 (Homo sapiens, UniProt P29033, INS2A). As to the kind of experiment: dye uptake rate in Xenopus oocytes. To be noted: transport (dye permeation); resting membrane potential.
In experiment [3] the target is Cx30 (Homo sapiens, UniProt O95452). As to the kind of experiment: dye uptake rate in Xenopus oocytes. To be noted: transport (dye permeation); resting membrane potential.
In experiment [4] the target is T1, Cx26. As to the kind of experiment: inhibition of DAPI uptake in Xenopus oocytes. To be noted: competitive versus DAPI; resting membrane potential.

The record followed here is publication PMC11331127 (Proceedings of the National Academy of Sciences of the …, 2024).

Cx30, sequence (O95452 whole entry): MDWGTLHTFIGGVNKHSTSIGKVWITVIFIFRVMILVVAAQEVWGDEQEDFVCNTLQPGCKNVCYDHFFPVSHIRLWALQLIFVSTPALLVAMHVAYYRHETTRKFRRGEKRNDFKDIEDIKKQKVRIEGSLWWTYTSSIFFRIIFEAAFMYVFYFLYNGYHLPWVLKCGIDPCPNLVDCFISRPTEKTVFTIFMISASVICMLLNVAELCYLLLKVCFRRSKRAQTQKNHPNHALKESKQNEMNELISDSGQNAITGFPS

In general, Km refers to the concentration of substrate that gives half-maximal velocity. On to DAPI, for which the Km in experiment [1] turned out to be 90.1 ± 22 µM.
As usually defined, the Ki is the equilibrium dissociation constant of an inhibitor or competing ligand from its target. On to ethidium, for which the Km in experiment [2] amounted to 88.6 ± 17.4 µM; in experiment [3], 6.6 ± 2 µM. In experiment [4], this substance had a Ki of approximately 16.5 µM.
